pIC50: −log10 of the molar value.
Target: GST tagged IRAK4 (Homo sapiens (Human), UniProt Q9NWZ3)
Assay: IRAK4 Kinase Assay (IMAP fluorescence polarization)
Format: biochemical
Details: 0.5 nM GST tagged IRAK4, 100 μM ATP, 30 minutes at 25° C.
Description: The kinase activity of IRAK4 is determined by its ability to catalyze the phosphorylation of a fluorescent polypeptide substrate. The extent of phosphorylation is measured using the IMAP technology (Molecular Devices) where the phosphorylated fluorescent substrate binds to the large M(III)-based nanoparticles which reduces the rotational speed of the substrate and thus increases its fluorescent polarization (FP).
20 μL reaction mixture contains 10 mM TriHCl, pH 7.2, 0.5 nM GST tagged IRAK4 (SignalChem), 100 nM fluorescent peptide substrate (RP7030, Molecular Devices), 100 μM ATP, 1 mM DDT, 1 mM MgCl2, and 0.01% Tween 20. The reaction is initiated by the addition of ATP. After incubation for 30 minutes at 25° C., 60 μL of Progressive IMAP Reagent (Molecular Devices) is added to stop the reaction. Change in RP7030's FP is determined by a FP reader (Analyst HT, LJL BioSystems).

Chain of GST tagged IRAK4 (Q9NWZ3 whole entry): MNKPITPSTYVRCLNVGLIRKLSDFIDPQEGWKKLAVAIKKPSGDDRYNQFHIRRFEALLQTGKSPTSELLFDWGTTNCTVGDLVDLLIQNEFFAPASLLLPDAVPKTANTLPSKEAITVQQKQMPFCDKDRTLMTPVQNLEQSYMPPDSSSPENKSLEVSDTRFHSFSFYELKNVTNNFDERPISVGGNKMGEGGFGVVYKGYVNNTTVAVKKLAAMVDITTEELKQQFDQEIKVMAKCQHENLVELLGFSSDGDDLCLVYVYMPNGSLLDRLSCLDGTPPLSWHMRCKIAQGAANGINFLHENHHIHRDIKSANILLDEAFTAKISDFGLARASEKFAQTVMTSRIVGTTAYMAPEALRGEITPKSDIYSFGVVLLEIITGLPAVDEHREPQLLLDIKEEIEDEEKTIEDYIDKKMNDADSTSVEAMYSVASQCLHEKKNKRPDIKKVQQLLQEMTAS

SMILES | pIC50
CC(C)[C@@H]1COCCN1[C@H]1CC[C@H](Nc2ncnc3ccc(C#N)cc23)CC1 [Example 3-52, 4-({trans-4-[(3R)-3-(propan-2-yl)morpholin-4-yl]cyclohexyl}amino) quinazoline-6-carbonitrile] | 7.59
N#Cc1ccc2ncnc(N[C@H]3CC[C@H](N4CCCC(F)(F)CC4)CC3)c2c1 [Example 3-53, 4-{[trans-4-(4,4-difluoroazepan-1-yl)cyclohexyl]amino} quinazoline-6-carbonitrile] | 7.92
N#Cc1ccc2ncnc(N[C@H]3CC[C@H](N4CCC(F)(F)CC4)CC3)c2c1 [Example 3-54, 4-{[trans-4-(4,4-difluoropiperidin-1-yl)cyclohexyl]amino} quinazoline-6-carbonitrile] | 8.52
N#Cc1ccc2ncnc(N[C@H]3CC[C@H](N4CCC(O)C4)CC3)c2c1 (stereo partly drawn) [Example 3-55, 4-{[trans-4-(3-hydroxypyrrolidin-1-yl)cyclohexyl]amino} quinazoline-6-carbonitrile] | 7.82
CN(C)[C@H]1CC[C@H](Nc2ncnc3ccc(OCCCC(N)=O)cc23)CC1 [Example 4-1, 4-[(4-{[Trans-4-(dimethylamino)cyclohexyl]amino}quinazolin-6-yl)oxy]butanamide] | 6.28
N#Cc1cc2c(N[C@H]3CC[C@H](N4CCOCC4)CC3)ncnc2cc1F [Example 5-1, 7-Fluoro-4-{[trans-4-(morpholin-4-yl)cyclohexyl]amino}quinazoline-6-carbonitrile] | 7.57
Cc1c(C#N)ccc2ncnc(N[C@H]3CC[C@H](N4CCOCC4)CC3)c12 [Example 5-2, 5-methyl-4-{[trans-4-(morpholin-4-yl)cyclohexyl]amino} quinazoline-6-carbonitrile] | 7.28
N#Cc1ccc2ncnc(N[C@H]3CC[C@H](N4CCN(C(=O)C5CC5)CC4)CC3)c2c1 [Example 6-1, 4-({Trans-4-[4-(cyclopropylcarbonyl)piperazin-1-yl]cyclohexyl}amino)quinazoline-6-carbonitrile] | 8.52
CC(=O)N1CCN([C@H]2CC[C@H](Nc3ncnc4ccc(C#N)cc34)CC2)CC1 [Example 6-2, 4-{[trans-4-(4-acetylpiperazin-1-yl)cyclohexyl]amino} quinazoline-6-carbonitrile] | 7.96
CC(C)(C)C(=O)N1CCN([C@H]2CC[C@H](Nc3ncnc4ccc(C#N)cc34)CC2)CC1 [Example 6-3, 4-({trans-4-[4-(2,2-dimethylpropanoyl)piperazin-1-yl]cyclohexyl}amino) quinazoline-6-carbonitrile] | 8.10
CC(C)(CF)C(=O)N1CCN([C@H]2CC[C@H](Nc3ncnc4ccc(C#N)cc34)CC2)CC1 [Example 6-4, 4-({trans-4-[4-(3-fluoro-2,2-dimethylpropanoyl)piperazin-1-yl]cyclohexyl}amino) quinazoline-6-carbonitrile] | 8.05
CC(C)(F)C(=O)N1CCN([C@H]2CC[C@H](Nc3ncnc4ccc(C#N)cc34)CC2)CC1 [Example 6-5, 4-({trans-4-[4-(2-fluoro-2-methylpropanoyl)piperazin-1-yl]cyclohexyl}amino) quinazoline-6-carbonitrile] | 7.92
CC(F)(F)C(=O)N1CCN([C@H]2CC[C@H](Nc3ncnc4ccc(C#N)cc34)CC2)CC1 [Example 6-6, 4-({trans-4-[4-(2,2-difluoropropanoyl)piperazin-1-yl]cyclohexyl}amino) quinazoline-6-carbonitrile] | 7.80
CC(F)C(=O)N1CCN([C@H]2CC[C@H](Nc3ncnc4ccc(C#N)cc34)CC2)CC1 (stereo partly drawn) [Example 6-7, 4-({trans-4-[4-(2-fluoropropanoyl)piperazin-1-yl]cyclohexyl}amino) quinazoline-6-carbonitrile] | 7.85
CC1(C(=O)N2CCN([C@H]3CC[C@H](Nc4ncnc5ccc(C#N)cc45)CC3)CC2)CC1 [Example 6-8, 4-[(trans-4-{4-[(1-methylcyclopropyl)carbonyl]piperazin-1-yl}cyclohexyl)amino] quinazoline-6-carbonitrile] | 7.82
CC1(C(=O)N2CCN([C@H]3CC[C@H](Nc4ncnc5ccc(C#N)cc45)CC3)CC2)COC1 [Example 6-9, 4-[(trans-4-{4-[(3-methyloxetan-3-yl)carbonyl]piperazin-1-yl}cyclohexyl)amino] quinazoline-6-carbonitrile] | 7.85
COCC(=O)N1CCN([C@H]2CC[C@H](Nc3ncnc4ccc(C#N)cc34)CC2)CC1 [Example 6-10, 4-({trans-4-[4-(methoxyacetyl)piperazin-1-yl]cyclohexyl}amino) quinazoline-6-carbonitrile] | 7.80

SMILES | pIC50
N#Cc1ccc2ncnc(N[C@H]3CC[C@H](N4CCN(C(=O)[C@@H]5CCCO5)CC4)CC3)c2c1 [Example 6-11, 4-[(trans-4-{4-[(2S)-tetrahydrofuran-2-ylcarbonyl]piperazin-1-yl}cyclohexyl)amino] quinazoline-6-carbonitrile] | 7.96
N#Cc1ccc2ncnc(N[C@H]3CC[C@H](N4CCN(C(=O)C(F)F)CC4)CC3)c2c1 [Example 6-12, 4-({trans-4-[4-(difluoroacetyl)piperazin-1-yl]cyclohexyl}amino) quinazoline-6-carbonitrile] | 7.57
N#Cc1ccc2ncnc(N[C@H]3CC[C@H](N4CCN(C(=O)C5CC(F)C5)CC4)CC3)c2c1 (stereo partly drawn) [Example 6-13, 4-[(trans-4-{4-[(3-fluorocyclobutyl)carbonyl]piperazin-1-yl}cyclohexyl)amino] quinazoline-6-carbonitrile] | 8.00
N#Cc1ccc2ncnc(N[C@H]3CC[C@H](N4CCN(C(=O)C5CC5(F)F)CC4)CC3)c2c1 (stereo partly drawn) [Example 6-14, 4-[(trans-4-{4-[(2,2-difluorocyclopropyl)carbonyl]piperazin-1-yl}cyclohexyl)amino] quinazoline-6-carbonitrile] | 7.89
N#Cc1ccc2ncnc(N[C@H]3CC[C@H](N4CCN(C(=O)C5CCC5)CC4)CC3)c2c1 [Example 6-15, 4-({trans-4-[4-(cyclobutylcarbonyl)piperazin-1-yl]cyclohexyl}amino) quinazoline-6-carbonitrile] | 8.00
N#Cc1ccc2ncnc(N[C@H]3CC[C@H](N4CCN(C(=O)C5CCCC5)CC4)CC3)c2c1 [Example 6-16, 4-({trans-4-[4-(cyclopentylcarbonyl)piperazin-1-yl]cyclohexyl}amino) quinazoline-6-carbonitrile] | 8.00
N#Cc1ccc2ncnc(N[C@H]3CC[C@H](N4CCN(C(=O)CC5CC5)CC4)CC3)c2c1 [Example 6-17, 4-({trans-4-[4-(cyclopropylacetyl)piperazin-1-yl]cyclohexyl}amino) quinazoline-6-carbonitrile] | 8.05
N#Cc1ccc2ncnc(N[C@H]3CC[C@H](N4CCN(C(=O)CC5COC5)CC4)CC3)c2c1 [Example 6-18, 4-({trans-4-[4-(oxetan-3-ylacetyl)piperazin-1-yl]cyclohexyl}amino) quinazoline-6-carbonitrile] | 8.00
N#Cc1ccc2ncnc(N[C@H]3CC[C@H](N4CCN(C(=O)CF)CC4)CC3)c2c1 [Example 6-19, 4-({trans-4-[4-(fluoroacetyl)piperazin-1-yl]cyclohexyl}amino) quinazoline-6-carbonitrile] | 7.64
N#Cc1ccc2ncnc(N[C@H]3CC[C@H](N4CCN(C(=O)C(O)C5CC5)CC4)CC3)c2c1 (stereo partly drawn) [Example 6-20, 4-[(trans-4-{4-[cyclopropyl(hydroxy)acetyl]piperazin-1-yl}cyclohexyl)amino] quinazoline-6-carbonitrile] | 8.10
N#Cc1ccc2ncnc(N[C@H]3CC[C@H](N4CCN(C(=O)C5CC(O)C5)CC4)CC3)c2c1 (stereo partly drawn) [Example 6-21, 4-[(trans-4-{4-[(3-hydroxycyclobutyl)carbonyl]piperazin-1-yl}cyclohexyl)amino] quinazoline-6-carbonitrile] | 8.00
N#Cc1ccc2ncnc(N[C@H]3CC[C@H](N4CCN(C(=O)CCO)CC4)CC3)c2c1 [Example 6-22, 4-({trans-4-[4-(3-hydroxypropanoyl)piperazin-1-yl]cyclohexyl}amino) quinazoline-6-carbonitrile] | 8.05
N#Cc1ccc2ncnc(N[C@H]3CC[C@H](N4CCN(C(=O)[C@H]5CCCO5)CC4)CC3)c2c1 [Example 6-23, 4-[(trans-4-{4-[(2R)-tetrahydrofuran-2-ylcarbonyl]piperazin-1-yl}cyclohexyl)amino] quinazoline-6-carbonitrile] | 7.77
C[C@]1(Nc2ncnc3ccc(C#N)cc23)CC[C@H](N2CCOCC2)CC1 [Example 7-1, 4-{[Trans-1-methyl-4-(morpholin-4-yl)cyclohexyl]amino}quinazoline-6-carbonitrile] | 7.01
C[C@]1(Nc2ncnc3ccc(C#N)cc23)CC[C@H](N2CCC(F)CC2)CC1 [Example 7-2, 4-{[trans-4-(4-fluoropiperidin-1-yl)-1-methylcyclohexyl]amino} quinazoline-6-carbonitrile] | 7.13
C[C@]1(Nc2ncnc3ccc(C#N)cc23)CC[C@H](N2CCC(O)C2)CC1 (stereo partly drawn) [Example 7-3, 4-{[trans-4-(3-hydroxypyrrolidin-1-yl)-1-methylcyclohexyl]amino} quinazoline-6-carbonitrile] | 7.37
N#Cc1ccc2ncnc(N[C@H]3CC[C@H](N4CCC(F)CC4)[C@@H]4C[C@@H]43)c2c1 [Example 7-4, 4-{[(1S,2S,5S,6R)-5-(4-fluoropiperidin-1-yl)bicyclo[4.1.0]hept-2-yl]amino}quinazoline-6-carbonitrile] | 8.15

Source: US9932350B2, “Inhibitors of IRAK4 activity” (MERCK SHARP & DOHME CORP., priority 2014, dated 2018)
